Drawing on patent US20060069123A1, “Substituted dipiperidine CCR2 antagonists” (priority 2004, published 2006), this text covers IC50 and inhibition for 29 compounds.

Read-outs that look alike come from different tables or passages of the source.

For one assay, the system named is THP-1 cells. Nature of the assay: MCP-1 Induced Chemotaxis in THP-1 Cells. Format: cell-based. The following applies: Homo sapiens, THP-1 cells, MCP-1 0.01 μg/mL, 3 hours, read-out: Inhibition of MCP-1 Induced Chemotaxis IC50. On the procedure:
MCP-1 Induced Chemotaxis in THP-1 Cells
MCP-1 induced chemotaxis was run in a 24-well chemotaxis chamber. MCP-1 (0.01 μg/mL) was added to the lower chamber and 100 μL of THP-1 cells (1×10^7 cell/mL) was added to the top chamber. Varying concentrations of test compound were added to the top and bottom chambers. Cells were allowed to chemotax for 3 hours at 37° C. and 5% CO2. An aliquot of the cells that had migrated to the bottom chamber was taken and counted then compared to vehicle.

A further assay addresses T1, CCR2 (Homo sapiens, UniProt P41597).
T1 sequence (P41597 1-360 isoform P41597-2): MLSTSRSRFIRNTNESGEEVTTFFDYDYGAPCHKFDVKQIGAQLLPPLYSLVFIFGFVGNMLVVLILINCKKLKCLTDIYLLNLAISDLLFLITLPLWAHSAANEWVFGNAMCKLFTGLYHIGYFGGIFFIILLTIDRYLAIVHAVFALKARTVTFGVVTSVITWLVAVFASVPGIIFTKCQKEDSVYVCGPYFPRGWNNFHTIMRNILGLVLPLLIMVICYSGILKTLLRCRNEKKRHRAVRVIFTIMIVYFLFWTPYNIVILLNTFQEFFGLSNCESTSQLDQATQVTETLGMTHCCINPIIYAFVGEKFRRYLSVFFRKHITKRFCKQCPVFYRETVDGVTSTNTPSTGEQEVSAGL
The following applies: for inhibition at 25 µM: read-out: Inhibition of MCP-1 Binding, percent inhibition.

For `COc1ccc(C2CCN(C(C(=O)O)C3CCN(C(=O)/C=C/c4cc(F)cc(F)c4)CC3)CC2)cc1` (stereo not drawn) [Cpd 2, {1-[(2E)-3-(3,5-difluoro-phenyl)-acryloyl]-piperidin-4-yl}-[4-(4-methoxy-phenyl)-piperidin-1-yl]-acetic acid], the results for the concentration for half-maximal inhibition (IC50) with THP-1 cells and on CCR2 were 1.81 µM and 1.83 µM, respectively.

As to `O=C(O)C(C1CCN(C(=O)/C=C/c2cc(F)cc(F)c2)CC1)N1CCC(c2c[nH]c3ccc(F)cc23)CC1` (stereo not drawn) [Cpd 8, {1-[(2E)-3-(3,5-difluoro-phenyl)-acryloyl]-piperidin-4-yl}-[4-(5-fluoro-1H-indol-3-yl)-piperidin-1-yl]-acetic acid], the 50% inhibitory concentration (IC50) – broadly, the point on the concentration scale where inhibition reaches its midpoint – in the assay on THP-1 cells amounted to 0.01 µM.

Turning to `O=C(O)C(C1CCN(C(=O)/C=C/c2cc(F)cc(F)c2)CC1)N1CCC(c2c[nH]c3ccc(O)cc23)CC1` (stereo not drawn) [Cpd 16, {1-[(2E)-3-(3,5-difluoro-phenyl)-acryloyl]-piperidin-4-yl}-[4-(5-hydroxy-1H-indol-3-yl)-piperidin-1-yl]-acetic acid], in the assay on THP-1 cells, the 50% inhibitory concentration (IC50) was 0.02 µM.

As to `CC(=O)Nc1ccc2[nH]cc(C3CCN(C(C(=O)O)C4CCN(C(=O)/C=C/c5cc(F)c(F)c(F)c5)CC4)CC3)c2c1` (stereo not drawn) [Cpd 17, [4-(5-acetylamino-1H-indol-3-yl)-piperidin-1-yl]-{1-[(2E)-3-(3,4,5-trifluoro-phenyl)-acryloyl]-piperidin-4-yl}-acetic acid], the concentration for half-maximal inhibition (IC50) in the assay on THP-1 cells amounted to 0.02 µM; against CCR2, 0.16 µM.

In the case of `O=C(O)C(C1CCN(C(=O)/C=C/c2ccc(Cl)c(Cl)c2)CC1)N1CCC(c2c[nH]c3ccc(F)cc23)CC1` (stereo not drawn) [Cpd 19, {1-[(2E)-3-(3,4-dichloro-phenyl)-acryloyl]-piperidin-4-yl}-[4-(5-fluoro-1H-indol-3-yl)-piperidin-1-yl]-acetic acid], the IC50 in the assay with THP-1 cells stood at 0.004 µM.

Take `O=C(O)C(C1CCN(C(=O)/C=C/c2ccc(F)c(F)c2)CC1)N1CCC(c2c[nH]c3ccccc23)CC1` (stereo not drawn) [Cpd 22, {1-[(2E)-3-(3,4-difluoro-phenyl)-acryloyl]-piperidin-4-yl}-[4-(1H-indol-3-yl)-piperidin-1-yl]-acetic acid]: the concentration for half-maximal inhibition (IC50) in the assay with THP-1 cells came to 0.004 µM.

In the case of `O=C(O)C(C1CCN(C(=O)/C=C/c2cc(F)cc(F)c2)CC1)N1CCC(c2c[nH]c3cc(F)ccc23)CC1` (stereo not drawn) [Cpd 24, {1-[(2E)-3-(3,5-difluoro-phenyl)-acryloyl]-piperidin-4-yl}-[4-(6-fluoro-1H-indol-3-yl)-piperidin-1-yl]-acetic acid], the IC50 in the assay with THP-1 cells was determined as 0.0007 µM; against CCR2, 0.01 µM.

On to `O=C(O)C(C1CCN(C(=O)/C=C/c2cc(F)cc(F)c2)CC1)N1CCC(c2c[nH]c3cc(Cl)ccc23)CC1` (stereo not drawn) [Cpd 25, [4-(6-chloro-1H-indol-3-yl)-piperidin-1-yl]-{1-[(2E)-3-(3,5-difluoro-phenyl)-acryloyl]-piperidin-4-yl}-acetic acid], for which the concentration for half-maximal inhibition (IC50) with THP-1 cells amounted to 0.01 µM.

Consider `COc1ccc2[nH]cc(C3CCN(C(C(=O)O)C4CCN(C(=O)/C=C/c5cc(F)cc(F)c5)CC4)CC3)c2c1` (stereo not drawn) [Cpd 26, {1-[(2E)-3-(3,5-difluoro-phenyl)-acryloyl]-piperidin-4-yl}-[4-(5-methoxy-1H-indol-3-yl)-piperidin-1-yl]-acetic acid], for which, in the assay with THP-1 cells, the IC50 stood at 0.03 µM.

`O=C(O)C(C1CCN(C(=O)Nc2cc(F)cc(F)c2)CC1)N1CCC(c2c[nH]c3ccccc23)CC1` (stereo not drawn) [Cpd 28, [1-(3,5-difluoro-phenylcarbamoyl)-piperidin-4-yl]-[4-(1H-indol-3-yl)-piperidin-1-yl]-acetic acid]: the values for the half-inhibitory concentration (IC50) in the assay with THP-1 cells and on CCR2 were 0.43 µM and 0.1 µM, respectively.

`CS(=O)(=O)Nc1ccc2[nH]cc(C3CCN(C(C(=O)O)C4CCN(C(=O)/C=C/c5cc(F)cc(F)c5)CC4)CC3)c2c1` (stereo not drawn) [Cpd 29, {1-[(2E)-3-(3,5-difluoro-phenyl)-acryloyl]-piperidin-4-yl}-[4-(5-methanesulfonylamino-1H-indol-3-yl)-piperidin-1-yl]-acetic acid]: the 50% inhibitory concentration (IC50) with THP-1 cells turned out to be 0.0004 µM; at CCR2, 0.024 µM.

For `O=C(O)C(C1CCN(C(=O)/C=C/c2ccc(Cl)cc2)CC1)N1CCC(c2c[nH]c3ccccc23)CC1` (stereo not drawn) [Cpd 34, {1-[(2E)-3-(4-chloro-phenyl)-acryloyl]-piperidin-4-yl}-[4-(1H-indol-3-yl)-piperidin-1-yl]-acetic acid], the values for the concentration for half-maximal inhibition (IC50) in the assay with THP-1 cells and at CCR2 were 0.006 µM and 0.01 µM, respectively.

`O=C(O)C(C1CCN(C(=O)/C=C/c2cccc(C(F)(F)F)c2)CC1)N1CCC(c2c[nH]c3ccccc23)CC1` (stereo not drawn) [Cpd 35, [4-(1H-indol-3-yl)-piperidin-1-yl]-{1-[(2E)-3-(3-trifluoromethyl-phenyl)-acryloyl]-piperidin-4-yl}-acetic acid]: the IC50 in the assay on THP-1 cells turned out to be 0.03 µM; against CCR2, 0.008 µM.

Regarding `O=C(O)C(C1CCN(C(=O)Nc2ccc(F)c(F)c2)CC1)N1CCC(c2c[nH]c3ccccc23)CC1` (stereo not drawn) [Cpd 40, [1-(3,4-difluoro-phenylcarbamoyl)-piperidin-4-yl]-[4-(1H-indol-3-yl)-piperidin-1-yl]-acetic acid], the IC50 in the assay with THP-1 cells stood at 0.03 µM.

With `COc1cccc2c(C3CCN(C(C(=O)O)C4CCN(C(=O)/C=C/c5cc(F)cc(F)c5)CC4)CC3)c[nH]c12` (stereo not drawn) [Cpd 42, {1-[(2E)-3-(3,5-difluoro-phenyl)-acryloyl]-piperidin-4-yl}-[4-(7-methoxy-1H-indol-3-yl)-piperidin-1-yl]-acetic acid], the concentration for half-maximal inhibition (IC50) in the assay with THP-1 cells was determined as 0.0008 µM.

Turning to `O=C(O)C(C1CCN(C(=O)/C=C/c2ccc(Br)cc2)CC1)N1CCC(c2c[nH]c3ccccc23)CC1` (stereo not drawn) [Cpd 60, {1-[(2E)-3-(4-bromo-phenyl)-acryloyl]-piperidin-4-yl}-[4-(1H-indol-3-yl)-piperidin-1-yl]-acetic acid], the IC50 in the assay with THP-1 cells is 0.07 µM.

`O=C(O)C(C1CCN(C(=O)/C=C/c2cccc(F)c2)CC1)N1CCC(c2c[nH]c3ccccc23)CC1` (stereo not drawn) [Cpd 62, {1-[(2E)-3-(3-fluoro-phenyl)-acryloyl]-piperidin-4-yl}-[4-(1H-indol-3-yl)-piperidin-1-yl]-acetic acid]: the IC50 in the assay with THP-1 cells came to 0.18 µM.

For `COc1cccc(/C=C/C(=O)N2CCC(C(C(=O)O)N3CCC(c4c[nH]c5ccccc45)CC3)CC2)c1` (stereo not drawn) [Cpd 72, [4-(1H-indol-3-yl)-piperidin-1-yl]-{1-[(2E)-3-(3-methoxy-phenyl)-acryloyl]-piperidin-4-yl}-acetic acid], the half-inhibitory concentration (IC50) in the assay on THP-1 cells amounted to 0.03 µM.

Consider `CS(=O)(=O)Nc1ccc2c(C3CCN(C(C(=O)O)C4CCN(C(=O)/C=C/c5cc(F)c(F)c(F)c5)CC4)CC3)c[nH]c2c1` (stereo not drawn) [Cpd 82], for which, in the assay with THP-1 cells (THP-1, 3 h), the IC50 stood at 0.21 µM.

Consider `COC(=O)NCC(C1CCN(C(=O)/C=C/c2cc(F)c(F)c(F)c2)CC1)N1CCC(c2c[nH]c3ccccc23)CC1` (stereo not drawn) [Cpd 238, (2-[4-(1H-indol-3-yl)-piperidin-1-yl]-2-{1-[(2E)-3-(3,4,5-trifluoro-phenyl)-acryloyl]-piperidin-4-yl}-ethyl)-carbamic acid methyl ester], for which, on CCR2, the IC50 worked out at 2.4 µM.

As to `COC(=O)NCC(C1CCN(C(=O)/C=C/c2cc(F)cc(F)c2)CC1)N1CCC(c2c[nH]c3ccccc23)CC1` (stereo not drawn) [Cpd 239], the concentration for half-maximal inhibition (IC50) at CCR2 was determined as 3 µM.

Compound `COC(=O)NCC(C1CCN(C(=O)/C=C/c2ccc(Cl)c(Cl)c2)CC1)N1CCC(c2c[nH]c3ccccc23)CC1` (stereo not drawn) [Cpd 240] registered an IC50 against CCR2 of 4.6 µM.

Regarding `COC(=O)NCC(C1CCN(C(=O)/C=C/c2cccc(C)c2)CC1)N1CCC(c2c[nH]c3ccccc23)CC1` (stereo not drawn) [Cpd 241], on CCR2, the inhibition – broadly, the drop in the measured response relative to a control, in per cent – at 25 µM was 58%.

For `O=C(/C=C/c1ccc(C(F)(F)F)cc1)N1CCC(C(CCl)N2CCC(c3ccc(Cl)cc3)CC2)CC1` (stereo not drawn) [Cpd 247, (2E)-1-(4-{2-chloro-1-[4-(4-chloro-phenyl)-piperidin-1-yl]-ethyl}-piperidin-1-yl)-3-(4-trifluoromethyl-phenyl)-propenone], at CCR2, the inhibition at 25 µM was 53%.

Compound `O=C(/C=C/c1cc(F)c(F)c(F)c1)N1CCC(C(CO)N2CCC(c3coc4ncccc34)CC2)CC1` (stereo not drawn) [Cpd 248, (2E)-1-{4-[1-(4-furo[2,3-b]pyridin-3-yl-piperidin-1-yl)-2-hydroxy-ethyl]-piperidin-1-yl}-3-(3,4,5-trifluoro-phenyl)-propenone] showed an IC50 at CCR2 of 1.9 µM.

In turn, `O=C(/C=C/c1cc(F)cc(F)c1)N1CCC(C(CO)N2CCC(c3ccc(Cl)cc3)CC2)CC1` (stereo not drawn) [Cpd 249, (2E)-1-(4-{1-[4-(4-chloro-phenyl)-piperidin-1-yl]-2-hydroxy-ethyl}-piperidin-1-yl)-3-(3,5-difluoro-phenyl)-propenone] returned a 50% inhibitory concentration (IC50) on CCR2 of 0.02 µM.

As to `COC(=O)OCC(C1CCN(C(=O)/C=C/c2cc(F)cc(F)c2)CC1)N1CCC(c2ccc(Cl)cc2)CC1` (stereo not drawn) [Cpd 250, carbonic acid 2-[4-(4-chloro-phenyl)-piperidin-1-yl]-2-{1-[(2E)-3-(3,5-difluoro-phenyl)-acryloyl]-piperidin-4-yl}-ethyl ester methyl ester], the IC50 against CCR2 was found to be 2.9 µM.

Take `CN(C)CC(=O)NCC(C1CCN(C(=O)/C=C/c2cc(F)cc(F)c2)CC1)N1CCC(c2c[nH]c3ccccc23)CC1` (stereo not drawn) [Cpd 252]: the IC50 at CCR2 amounted to 5.8 µM.

`COCC(C1CCN(C(=O)/C=C/c2cc(F)cc(F)c2)CC1)N1CCC(c2ccc(OC)cc2)CC1` (stereo not drawn) [Cpd 255, (2E)-3-(3,5-difluoro-phenyl)-1-(4-{2-methoxy-1-[4-(4-methoxy-phenyl)-piperidin-1-yl]-ethyl}-piperidin-1-yl)-propenone]: the concentration for half-maximal inhibition (IC50) against CCR2 worked out at 2.4 µM.
